Where “and” joins values, the source holds several entries; their conditions need not be identical. Equal values may be shown once. Entries after “also recorded” stand apart in the source; their conditions may differ. Read-outs that look alike come from different tables or passages of the source.
How the values were obtained:
[1] = Osmolarity and pH of the BBG solution; type: physicochemical
ILM [2] = assay: BBG in ILM staining, effects and safety in human eyes (first attempt, 16 eyes); type: in vivo
Protocol: Sixteen eyes of 16 patients with a macular hole (MH) and epiretinal membranes (ERMS) were recruited from the outpatient unit of Kyushu University Hospital (Fukuoka, Japan) between August and September 2004. Patients with ocular diseases such as glaucoma, uveitis, and corneal disorder were excluded. This study was carried out with the approval from the appropriate institutional Ethics Committee and was performed in accordance with the ethical standards laid down in the 1989 Declaration of Helsinki. The possible advantages and risks of the present treatment were explained to the patients before surgery and informed consent was obtained from all patients. […] The final concentration of BBG was 0.25 mg/ml. […] Removal of the ILM was performed using ILM forceps (D.O.R.C.; Dutch Ophthalmic Research Center International b.v., Netherlands).
Postoperative examinations included slitlamp microscopy, opthalmoscopy, best corrected visual acuity (BCVA) and intraocular pressure. The visual field was evaluated with Humphrey Field Analyzer II (Humphrey Systems, Dublin, Calif., USA) after 2 months.

anterior capsule [3] = assay: Capsular staining ability of BBG in pig eyes
Protocol: The capsular staining ability of BBG was assessed in pig eyes using graded concentrations of the dye.
The pig eyes were obtained from a local slaughterhouse and transported to the laboratory on ice. The extraocular muscles and other connective tissues were carefully cut off and the eyes were placed on the operation chamber. The BBG solution was prepared using the following method. Twenty milligrams of BBG (Coomassie. brilliant blue G 250; Signa-Aldrich, St. Louis, USA) were dissolved in 10 ml of intraocular irrigating solution (OPEGUARD.-MA, Senjyu Pharmaceutical Co., Ltd., Osaka, Japan) and sterilized with a syringe filter (Minisart. Sartorius AG, Goettingen, Germany). Under the operation microscope, the capsular staining by BBG was examined as follows. […] The anterior chamber was immediately irrigated by enhanced balanced salt solution (BSS Plus®, Santen Pharmaceuticals, Japan) and the excessive dye was easily washed out.
To deepen the anterior chamber, 1% sodium hyaluronate (Healon®, Pharmacia, Uppsala, Sweden) was injected. A CCC was initiated by preparing a small triangular anterior capsular flap with a bent 26-gauge disposable needle mounted on a viscoelastic syringe. The CCC was completed using a cystotome or capsulorhexis forceps.

anterior capsule [4] = assay: BBG-assisted continuous curvilinear capsulorhexis in a human eye; type: in vivo
Protocol: A person with a white mature cataract underwent BBG-assisted CCC and phacoemulsification with intraocular lens (IOL) implantation in August 2004. The patient had no other ocular diseases, such as glaucoma, uveitis or corneal disorders. Coomassie® BBG 250 (Sigma-Aldrich, St. Louis, USA) was dissolved in intraocular irrigating solution (OPEGUARD®-MA; Senjyu Pharmaceutical Co., Ltd., Osaka, Japan) at a dose of 0.25 mg/ml and sterilized with a syringe filter. The BBG solution was gently injected into the anterior chamber and then washed out immediately with balanced salt solution (BSS).

retina [5] = conditions: rat, in vivo
retina [6] = conditions: rat, in vivo; remark: listed apart in the source
Protocol: Brown Norway rats (n=78 males, 8 weeks old, Kyudo, Fukuoka, Japan) were anesthetized with an intraperitoneal injection of ketamine hydrochloride at a dose of 75 mg/kg body weight. One eye from each animal (total of n=6 per dose group) was vitrectomized using 0.05 ml of pure SF6 gas as described previously. Following the gas injection, 0.05 ml of BBG solution was injected into the vitreous cavity of each vitrectomized eye using a microscope for enhanced magnification during surgery. […] Twenty-four sham-operated eyes (injected with SF6 followed by 0.05 ml of intraocular irrigating solution) were used as controls.
The eyes were enucleated on day 14 and at 2 months post-operation and fixed in 1% glutaraldehyde and 1% paraformaldehyde in PBS. The specimens were postfixed in veronal acetate buffer osmium tetroxide (2%), dehydrated in ethanol and water, and embedded in Epon. Ultrathin sections were cut from blocks and mounted on copper grids.

retina [7] = system: retina
ILM [8] = system: ILM
Protocol: Since ILM peeling is impossible in rat eyes, the inventors examined the ability of BBG to stain the ILM in primate eyes. Two eyes from two cynomolgus monkeys at 3 years of age were used in this study. The animals were restrained in a squeeze cage and injected intramuscularly in the thigh with 20 mg/kg of ketamine hydrochloride (Sankyo Yell Pharmaceutical Products Co. Ltd., Japan) for general anesthesia. The monkeys were subsequently transported to an operating room. Surgery consisted of a standard three port pars plana vitrectomy with induction of a posterior vitreous detachment by suction with a vitrectomy cutter using triamcinolone acetonide injection for vitreous visualization.
Ten milligrams of BBG were dissolved in 20 ml of intraocular irrigating solution and sterilized with a syringe filter. The final concentration of BBG was 0.5 mg/ml. The prepared BBG solution (0.5 ml) was then injected gently into the vitreous cavity and washed out immediately with balanced salt solution (BSS Plus (Registered trademark), Santen, Osaka, Japan). Removal of the ILM was performed using ILM forceps.

ILM [9] = system: ILM; remark: listed apart in the source
corneal endothelium = conditions: single anterior chamber injection; for apoptotic cell death (TUNEL) in corneal stromal cells, endothelium, ciliary body and lens cells: BBG 0.01-10 mg/ml, ICG 5 mg/ml
cornea = assay: Anterior chamber injection of dyes in rats: light microscopy (HE); type: in vivo, Brown Norway rats; conditions: single anterior chamber injection; BBG 0.01-10 mg/ml, ICG 5 mg/ml, TB 1 mg/ml; 2 weeks and 2 months
Description: The eyes were fixed in 4% paraformaldehyde and cut in half, embedded in paraffin, deparaffinized in xylene, rehydrated in ethanol, and washed in phosphate-buffered saline (PBS). The 4 μm thick sections were stained by hematoxylin and eosin, and observed by light microscope.

anterior capsule [10] = conditions: stated for comparison, no test described; cited from earlier work
corneal cells = assay: Anterior chamber injection of dyes in rats: transmission electron microscopy; conditions: single anterior chamber injection; BBG 10 mg/ml, ICG 5 mg/ml, TB 1 mg/ml
Protocol: Brown Norway rats (Kyudo, Fukuoka, Japan), postnatal 8 weeks, were studied as follows. The rats were anesthetized with an intraperitoneal injection of pentobarbital and their pupils were dilated with topical 1% tropicamide and 2.5% phenylephrine hydrochloride. The anterior chamber was entered through the clear cornea with a 30-gauge needle mounted on a syringe. Then a single anterior chamber injection was performed with each dye, BBG (10, 1, 0.5, 0.25, 0.1 and 0.01 mg/ml), ICG (5 mg/ml), trypan blue (1 mg/ml), and the control OPEGUARD. solution (n=6 for each dye, total 54 eyes).
The dye remained in the anterior chamber and was followed by biomicroscopic examination for 2 months. The eyes were enucleated at 2 weeks and 2 months after operation. The eyes were analyzed by light microscopy, transmission and scanning electron microscopy.
The eyes were enucleated and the anterior segments were fixed in 1% glutaraldehyde and 1% paraformaldehyde in PBS. The specimens were postfixed in veronal acetate buffer osmium tetroxide (2%), dehydrated in ethanol and water, and embedded in Epon. Ultrathin sections were cut from blocks and mounted on copper grids.

[11] = BBG 10 mg/ml in intraocular irrigating solution (OPEGUARD-MA)
[12] = 0.25 mg/ml, 0.5 ml intravitreal, washed out immediately
[13] = individual patient case, BBG 0.25 mg/ml

CCOc1ccc(Nc2ccc(/C(=C3C=C/C(=[N+](/CC)Cc4cccc(S(=O)(=O)[O-])c4)C=C/3C)c3ccc(N(CC)Cc4cccc(S(=O)(=O)[O-])c4)cc3C)cc2)cc1.[Na+] [BBG, Brilliant Blue G]
Osmolarity ([1]; BBG 0.01 mg/ml in OPEGUARD-MA): 298 mOsm/KgH20 | pH ([1]; BBG 0.01 mg/ml in OPEGUARD-MA): 7.41 | Osmolarity ([1]; BBG 0.1 mg/ml in OPEGUARD-MA): 298 mOsm/KgH20 | pH ([1]; BBG 0.1 mg/ml in OPEGUARD-MA): 7.41 | osmolarity of prepared BBG solution ([1]; BBG 0.25 mg/ml in OPEGUARD-MA): 289 mOsm | pH of prepared BBG solution ([1]; BBG 0.25 mg/ml in OPEGUARD-MA): 7.44 | Osmolarity ([1]; BBG 1.0 mg/ml in OPEGUARD-MA): 300 mOsm/KgH20 | pH ([1]; BBG 1.0 mg/ml in OPEGUARD-MA): 7.42 | Osmolarity [1, 11]: 310 mOsm/KgH20 | pH [1, 11]: 7.41 | staining of the ERMS (ILM [2]; 0.25 mg/ml): could not be confirmed | ILM staining (ILM [2]; [12]): stained a light blue color | elevation of intraocular pressure (ILM [2]; 16 eyes, BBG 0.25 mg/ml): None of the patients had an elevation of intraocular pressure | visual acuity (ILM [2]; 16 eyes, MH and ERM, BBG 0.25 mg/ml assisted peeling): recovered in all cases | Postop. Retinal status (ILM [2]; [13]): MH closed; also recorded: Fold (−); also recorded: Macular | complications (ILM [2]; [13]): Peripheral (2×) and none (13×) and Vitreous | Postop. BCVA (ILM [2]; individual patient case, BBG 0.25 mg/ml, follow up 2-4 months): 20/50 (2×) and 20/63 (2×) and 20/25 (2×) and 20/32 (4×) and 20/40 (3×) and 20/16 and 20/20 | other adverse effects due to BBG (ILM [2]; within the observation period): No other adverse effects | concentration providing satisfactory staining of the anterior capsule (anterior capsule [3]): 0.25 mg/mL | capsular staining (anterior capsule [3]; 0.1 mg/ml and 0.01 mg/ml): obscure | staining of the anterior capsule (anterior capsule [3]; 0.25 mg/ml to 1 mg/ml, staining deepened with concentration): stained the anterior capsule homogenously | minimal concentration needed to produce high quality staining with clear visualization (anterior capsule [3]; pig eye anterior capsule): 0.25 mg/mL | visibility of the anterior capsule during CCC (anterior capsule [4]; 0.25 mg/ml into anterior chamber, immediately irrigated, white mature cataract): clearly visible | corneal endothelial cell loss (anterior capsule [4]; after 2 months): 0.8% | visual acuity after surgery (anterior capsule [4]; improved from light perception (LP)): 20/20 | acute toxicity (corneal edema, severe inflammation or elevated intraocular pressure) (anterior capsule [4]; the following day): no acute toxicity | infiltration of inflammatory cells (light microscopy) (retina [5]): no infiltration of inflammatory cells was observed | toxic effects such as corneal edema, severe retinal edema, or endophthalmitis (surgical microscopy) (retina [5]): no toxic effects | changes in inner nuclear, outer nuclear and retinal pigment epithelial cell layers (TEM) (retina [6]): no remarkable changes were observed | apoptotic cell death of retinal cells (retina [7]; all BBG dose groups, after 2 months): had not undergone apoptotic cell death | apoptotic cell death in retina (TUNEL) (retina [7]; intravitreal 10 mg/ml, day 14): one case of apoptotic cell death was observed from among ten sections | apoptotic cell ratio compared with control sections (retina [7]; intravitreal 10 mg/ml, day 14): not significantly different | TUNEL staining in the retina (retina [7]; intravitreal lower doses, day 14): no TUNEL staining was observed | ILM staining (ILM [8]; 0.5 mg/ml, 0.5 ml into vitreous cavity, washed out immediately): stained a light blue color | concentration of BBG required to stain the ILM of primates in comparison with ICG (ILM [8]; ratio to ICG concentration): about 1/10 | staining of the ERM in ERM cases (ILM [9]; 0.25 mg/ml): could not be confirmed | ILM staining in MH cases (ILM [9]; [12]): stained a bright blue color instantly | staining of the ILM of the area where the ERM had been removed (ILM [9]; 0.25 mg/ml, second injection after ERM peeling): well stained | removal of the ILM including the ERM during surgery (ILM [9]; 20 eyes): removed from all 20 eyes successfully | patients with improvement of 2 or more lines on the Snellen chart (ILM [9]; ERM cases, eight of 10 patients): 80% | mean foveal thickness of retina measured with OCT, postoperative (ILM [9]; ERM cases, preoperative 454.7±141.3 μm): 249.4±71.3 μm | postoperative median BCVA (ILM [9]; ERM cases, preoperative median 20/50): 20/32 | eyes with visual acuity improved by 2 or more Snellen lines (ILM [9]; MH cases, 9 of 10 eyes): 90% | postoperative median BCVA (ILM [9]; MH cases, preoperative median 20/100): 20/32 | closure of MH (ophthalmoscopy and OCT) (ILM [9]; all 10 MH cases): completely closed anatomically | complication: protraction of vitreous hemorrhage (ILM [9]; in vivo): one case | complications: iatrogenic peripheral retinal breaks (ILM [9]; in vivo): two cases | elevation of IOP (ILM [9]; in vivo): 26 mmHg | other adverse effects such as retinal pigment epithelium (RPE) atrophy (ILM [9]; in vivo): No other adverse effects | Postop. Retinal status (ILM [9]; individual MH case): MH closed | apoptotic cell death (TUNEL) in corneal stromal cells, endothelium, ciliary body and lens cells (corneal endothelium): no TUNEL staining was observed

CC1(C)C(/C=C/C=C/C=C/C=C2\N(CCCCS(=O)(=O)O)c3ccc4ccccc4c3C2(C)C)=[N+](CCCCS(=O)(=O)[O-])c2ccc3ccccc3c21 [ICG, Indocyanine green]
changes in hematoxilin and eosin stained sections of the cornea (cornea): no remarkable changes | apoptotic cell death (TUNEL) in corneal stromal cells, endothelium, ciliary body and lens cells (corneal endothelium): no apparent apoptotic cell death was detected | concentration required for staining of the anterior capsule (comparison dyes) (anterior capsule [10]): 5 mg/mL | ultrastructure of corneal cells and endothelium (TEM) (corneal cells): some endothelial cells demonstrated signs of mitochondrial swelling

Cc1cc(-c2ccc(/N=N/c3c(S(=O)(=O)O)cc4cc(S(=O)(=O)O)cc(N)c4c3O)c(C)c2)ccc1/N=N/c1c(S(=O)(=O)O)cc2cc(S(=O)(=O)O)cc(N)c2c1O [TB, Trypan Blue]
apoptotic cell death of corneal endothelium, share of the total endothelial cells (corneal endothelium; TB 1 mg/ml): 2% | concentration required for staining of the anterior capsule (comparison dyes) (anterior capsule [10]): 1 mg/mL
